This note sets out measurements from patent publication US7973061B2, “Anaplastic lymphoma kinase modulators and methods of use” (Exelixis, Inc., priority 2004, dated 2011).

Broadly, the IC50 is the concentration at which inhibition is half-maximal.

In the experiment the target is T1, ALK (baculovirus expressed human ALK kinase domain F1098-K1410) (Homo sapiens, UniProt Q9UM73).
T1 construct: human ALK kinase domain F1098-K1410; made in house
The experiment can be described thus: biochemical. The following applies: 1 μM ATP, 4 μM poly-AEKY, 12 nM ALK, 2 hours at ambient temperature; read-out: ALK IC50. How it is done: Kinase activity and compound inhibition are investigated using one or more of the three assay formats described below. The ATP concentrations for each assay are selected to be close to the Michaelis-Menten constant (KM) for each individual kinase. Dose-response experiments are performed at 10 different inhibitor concentrations in a 384-well plate format. […] Y=Min+(Max−Min)/(1+(X/IC50)^H) Equation (2) Luciferase-Coupled Chemiluminescent Kinase Assay
ALK biochemical activity was assessed using a Luciferase-Coupled Chemiluminescent Kinase assay (LCCA) format in which kinase activity was measured as the percent ATP remaining following the kinase reaction. ATP remaining after the kinase reaction was detected by luciferase-luciferin-coupled chemiluminescence. […] The mixture was incubated at ambient temperature for 2 hours after which 20 μL luciferase-luciferin mix was added and the chemiluminescent signal read using a Wallac Victor^2 reader. […] Consumption of ATP by ALK can be quantified and utilized as a measure of inhibition of ALK activity by compounds described herein. By employing serial dilutions of compounds to be tested, the ability of test compounds to inhibit ALK activity can be determined.

A value given as a limit tells only on which side of the number the result lay.

T1 sequence (Q9UM73 1098-1410): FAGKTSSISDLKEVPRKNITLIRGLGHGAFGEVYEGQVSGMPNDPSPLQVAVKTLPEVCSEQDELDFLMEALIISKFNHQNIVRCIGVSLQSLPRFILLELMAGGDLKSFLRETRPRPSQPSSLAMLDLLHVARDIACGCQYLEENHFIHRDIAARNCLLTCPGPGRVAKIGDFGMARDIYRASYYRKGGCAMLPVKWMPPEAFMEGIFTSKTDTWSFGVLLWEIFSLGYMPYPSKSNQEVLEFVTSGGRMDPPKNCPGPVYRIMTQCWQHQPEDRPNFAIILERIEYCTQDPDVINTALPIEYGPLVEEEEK

As to `C[C@H](CNC(=O)c1csc(CNC(=O)COc2ccc(OC(F)(F)F)cc2)n1)c1ccccc1` [Entry 26, N-[(2S)-2-phenylpropyl]-2-({[({4-[(trifluoromethyl)oxy]phenyl}oxy)acetyl]amino}methyl)-1,3-thiazole-4-carboxamide], the IC50 was less than 50 nM.

As to `CC1CCC(NC(=O)c2csc(CNC(=O)COc3ccc(OC(F)(F)F)cc3)n2)CC1` (centres unmarked) [Entry 140, N-(4-methylcyclohexyl)-2-({[({4-[(trifluoromethyl)oxy]phenyl}oxy)acetyl]amino}methyl)-1,3-thiazole-4-carboxamide], the IC50 lay in the range of 50 to 500 nM.

Take `CCCCOc1ccc(NC(=O)NCc2nc(C(=O)NCc3ccccc3OC)cs2)cc1` [Entry 214, 2-{[({[4-(butyloxy)phenyl]amino}carbonyl)amino]methyl}-N-{[2-(methyloxy)phenyl]methyl}-1,3-thiazole-4-carboxamide]: the IC50 lay in the range of 50 to 500 nM.

With `NC(=O)C1CCN(C(=O)c2csc(CNC(=O)COc3ccc(OC(F)(F)F)cc3)n2)CC1` [Entry 272, 1-{[2-({[({4-[(trifluoromethyl)oxy]phenyl}oxy)acetyl]amino}methyl)-1,3-thiazol-4-yl]carbonyl}piperidine-4-carboxamide], the IC50 was in the range of 500 to 2000 nM.

Consider `O=C(COc1ccc(OC(F)(F)F)cc1)NCc1nc(C(=O)NCc2ccccc2)co1` [Entry 297, N-(phenylmethyl)-2-({[({4-[(trifluoromethyl)oxy]phenyl}oxy)acetyl]amino}methyl)-1,3-oxazole-4-carboxamide], for which the IC50 fell in the range of 500 to 2000 nM.

For the molecule `O=C(COc1ccc(OC(F)(F)F)cc1)NCc1nc(C(=O)NCc2cccc(Cl)c2)cs1` [Entry 119, N-[(3-chlorophenyl)methyl]-2-({[({4-[(trifluoromethyl)oxy]phenyl}oxy)acetyl]amino}methyl)-1,3-thiazole-4-carboxamide], the IC50 lay in the range of 50 to 500 nM.

As for `COc1cccc(CNC(=O)c2csc(CNC(=O)Cc3ccc4ccccc4c3)n2)c1OC` [Entry 256, N-{[2,3-bis(methyloxy)phenyl]methyl}-2-{[(naphthalen-2-ylacetyl)amino]methyl}-1,3-thiazole-4-carboxamide], the IC50 is 500 to 2000 nM.

Consider `O=C(COc1ccc(OC(F)(F)F)cc1)NCc1nc(C(=O)NCCc2c[nH]c3ccccc23)co1` [Entry 251, N-[2-(1H-indol-3-yl)ethyl]-2-({[({4-[(trifluoromethyl)oxy]phenyl}oxy)acetyl]amino}methyl)-1,3-oxazole-4-carboxamide], for which the IC50 was 500 to 2000 nM.

As to `CCCCCCN(C)C(=O)c1csc(CNC(=O)COc2ccc(OC(F)(F)F)cc2)n1` [Entry 193, N-hexyl-N-methyl-2-({[({4-[(trifluoromethyl)oxy]phenyl}oxy)acetyl]amino}methyl)-1,3-thiazole-4-carboxamide], the IC50 was in the range of 50 to 500 nM.

For the molecule `O=C(COc1ccc(OC(F)(F)F)cc1)NCc1nc(C(=O)NCCc2cccc(Cl)c2)cs1` [Entry 2, N-[2-(3-chlorophenyl)ethyl]-2-({[({4-[(trifluoromethyl)oxy]phenyl}oxy)acetyl]amino}methyl)-1,3-thiazole-4-carboxamide], the IC50 is less than 50 nM.

As to `CCOc1ccccc1CCNC(=O)c1csc(CNC(=O)COc2ccc(OC(F)(F)F)cc2)n1` [Entry 60, N-{2-[2-(ethyloxy)phenyl]ethyl}-2-({[({4-[(trifluoromethyl)oxy]phenyl}oxy)acetyl]amino}methyl)-1,3-thiazole-4-carboxamide], the IC50 lay within 50 to 500 nM.

Consider `O=C(NCCc1cccc(Cl)c1)c1csc(CNCc2ccc(OC(F)(F)F)cc2)n1` [Entry 309, N-[2-(3-chlorophenyl)ethyl]-2-{[({4-[(trifluoromethyl)oxy]phenyl}methyl)amino]methyl}-1,3-thiazole-4-carboxamide], for which the IC50 is more than 2000 nM.

Take `O=C(COc1ccc(OC(F)(F)F)cc1)NCc1nc(C(=O)NCC2c3ccccc3CCc3ccccc32)cs1` [Entry 4, N-(10,11-dihydro-5H-dibenzo[a,d]cyclohepten-5-ylmethyl)-2-({[({4-[(trifluoromethyl)oxy]phenyl}oxy)acetyl]amino}methyl)-1,3-thiazole-4-carboxamide]: the IC50 was less than 50 nM.

Take `O=C(COc1ccc(OC(F)(F)F)cc1)NCc1nc(C(=O)NCc2cccc(I)c2)cs1` [Entry 157, N-[(3-iodophenyl)methyl]-2-({[({4-[(trifluoromethyl)oxy]phenyl}oxy)acetyl]amino}methyl)-1,3-thiazole-4-carboxamide]: the IC50 was 50 to 500 nM.

With `O=C(COc1ccc(OC(F)(F)F)cc1)NCc1nc(C(=O)NCc2ccc(F)cc2)cs1` [Entry 206, N-[(4-fluorophenyl)methyl]-2-({[({4-[(trifluoromethyl)oxy]phenyl}oxy)acetyl]amino}methyl)-1,3-thiazole-4-carboxamide], the IC50 fell in the range of 50 to 500 nM.

Take `O=C(COc1ccc(OC(F)(F)F)cc1)NCc1nc(C(=O)NCc2ccc(F)c(F)c2)cs1` [Entry 185, N-[(3,4-difluorophenyl)methyl]-2-({[({4-[(trifluoromethyl)oxy]phenyl}oxy)acetyl]amino}methyl)-1,3-thiazole-4-carboxamide]: the IC50 is 50 to 500 nM.

As to `O=C(COc1ccc(OC(F)(F)F)cc1)NCc1nc(C(=O)NCc2cccnc2)cs1` [Entry 241, N-(pyridin-3-ylmethyl)-2-({[({4-[(trifluoromethyl)oxy]phenyl}oxy)acetyl]amino}methyl)-1,3-thiazole-4-carboxamide], the IC50 was in the range of 500 to 2000 nM.

Consider `CCC(CC)NC(=O)c1csc(CNC(=O)COc2ccc(OC(F)(F)F)cc2)n1` [Entry 171, N-(1-ethylpropyl)-2-({[({4-[(trifluoromethyl)oxy]phenyl}oxy)acetyl]amino}methyl)-1,3-thiazole-4-carboxamide], for which the IC50 lay in the range of 50 to 500 nM.

As to `COc1ccc(CNC(=O)c2csc(CNC(=O)COc3ccc(OC(F)(F)F)cc3)n2)cc1` [Entry 178, N-{[4-(methyloxy)phenyl]methyl}-2-({[({4-[(trifluoromethyl)oxy]phenyl}oxy)acetyl]amino}methyl)-1,3-thiazole-4-carboxamide], the IC50 is 50 to 500 nM.

In the case of `CC1CC(C)CN(C(=O)c2csc(CNC(=O)COc3ccc(OC(F)(F)F)cc3)n2)C1` (centres unmarked) [Entry 282, N-({4-[(3,5-dimethylpiperidin-1-yl)carbonyl]-1,3-thiazol-2-yl}methyl)-2-({4-[(trifluoromethyl)oxy]phenyl}oxy)acetamide], the IC50 is 500 to 2000 nM.

As for `CSCC[C@H](NC(=O)c1ccccc1)C(=O)NCc1nc(C(=O)NCCc2cccc(Cl)c2)cs1` [Entry 221, N-{[4-({[2-(3-chlorophenyl)ethyl]amino}carbonyl)-1,3-thiazol-2-yl]methyl}-N~2~-(phenylcarbonyl)methioninamide], the IC50 lay within 500 to 2000 nM.

Consider `O=C(COc1ccc(OC(F)(F)F)cc1)NCc1nc(C(=O)NC2CCCc3ccccc32)co1` (centres unmarked) [Entry 293, N-(1,2,3,4-tetrahydronaphthalen-1-yl)-2-({[({4-[(trifluoromethyl)oxy]phenyl}oxy)acetyl]amino}methyl)-1,3-oxazole-4-carboxamide], for which the IC50 fell in the range of 500 to 2000 nM.

As for `CSCCCNC(=O)c1csc(CNC(=O)COc2ccc(OC(F)(F)F)cc2)n1` [Entry 149, N-[3-(methylthio)propyl]-2-({[({4-[(trifluoromethyl)oxy]phenyl}oxy)acetyl]amino}methyl)-1,3-thiazole-4-carboxamide], the IC50 was 50 to 500 nM.

In the case of `O=C(COc1ccc(OC(F)(F)F)cc1)NCc1nc(C(=O)N2CCC3CCCCC3C2)cs1` (centres unmarked) [Entry 294, N-{[4-(octahydroisoquinolin-2(1H)-ylcarbonyl)-1,3-thiazol-2-yl]methyl}-2-({4-[(trifluoromethyl)oxy]phenyl}oxy)acetamide], the IC50 fell in the range of 500 to 2000 nM.

For the molecule `COCC(C)NC(=O)c1csc(CNC(=O)COc2ccc(OC(F)(F)F)cc2)n1` (centres unmarked) [Entry 268, N-[1-methyl-2-(methyloxy)ethyl]-2-({[({4-[(trifluoromethyl)oxy]phenyl}oxy)acetyl]amino}methyl)-1,3-thiazole-4-carboxamide], the IC50 is 500 to 2000 nM.

On to `COc1ccccc1CNC(=O)c1csc(CNC(=O)COc2ccc(C(C)(C)C)cc2)n1` [Entry 22, 2-{[({[4-(1,1-dimethylethyl)phenyl]oxy}acetyl)amino]methyl}-N-{[2-(methyloxy)phenyl]methyl}-1,3-thiazole-4-carboxamide], for which the IC50 was less than 50 nM.

For the molecule `CCOc1ccc(CCNC(=O)c2csc(CNC(=O)COc3ccc(OC(F)(F)F)cc3)n2)cc1OC` [Entry 43, N-{2-[4-(ethyloxy)-3-(methyloxy)phenyl]ethyl}-2-({[({4-[(trifluoromethyl)oxy]phenyl}oxy)acetyl]amino}methyl)-1,3-thiazole-4-carboxamide], the IC50 is 50 to 500 nM.

As to `O=C(COc1ccc(OC(F)(F)F)cc1)NCc1nc(C(=O)NCc2ccc(F)c(C(F)(F)F)c2)cs1` [Entry 174, N-{[4-fluoro-3-(trifluoromethyl)phenyl]methyl}-2-({[({4-[(trifluoromethyl)oxy]phenyl}oxy)acetyl]amino}methyl)-1,3-thiazole-4-carboxamide], the IC50 lay within 50 to 500 nM.

With `O=C(COc1ccc(OC(F)(F)F)cc1)NCc1nc(C(=O)NCc2ccc(Cl)c(C(F)(F)F)c2)cs1` [Entry 73, N-{[4-chloro-3-(trifluoromethyl)phenyl]methyl}-2-({[({4-[(trifluoromethyl)oxy]phenyl}oxy)acetyl]amino}methyl)-1,3-thiazole-4-carboxamide], the IC50 lay within 50 to 500 nM.
